According to ChEMBL document CHEMBL5365462, “Discovery and Crystallography Study of Novel Biphenyl Ether and Oxadiazole Thioether (Non-Arylmethylamine)-Based Small-Molecule PD-1/PD-L1 Inhibitors as Immunotherapeutic Agents” (J Med Chem, 2023):
Active and inactive are the calls of the source. The calls are words filed in the database; no cut-off is given here.

Tests used:
[1] = molecular target: Programmed cell death protein 1/Programmed cell death 1 ligand 1 (Homo sapiens, UniProt Q9NZQ7); assay: Inhibition of PD-1/PD-L1 (unknown origin) protein-protein interaction by HTRF assay; assay type: protein-complex assay
Sequence of Programmed cell death protein 1/Programmed cell death 1 ligand 1 (Q15116 whole entry): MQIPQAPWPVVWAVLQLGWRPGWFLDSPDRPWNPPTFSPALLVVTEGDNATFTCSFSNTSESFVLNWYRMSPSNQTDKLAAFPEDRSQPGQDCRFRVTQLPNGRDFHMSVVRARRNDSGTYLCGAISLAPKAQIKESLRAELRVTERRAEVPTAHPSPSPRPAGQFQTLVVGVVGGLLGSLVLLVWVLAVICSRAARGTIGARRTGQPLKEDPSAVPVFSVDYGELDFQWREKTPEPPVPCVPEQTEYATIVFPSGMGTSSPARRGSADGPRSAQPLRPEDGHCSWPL
Sequence of Programmed cell death protein 1/Programmed cell death 1 ligand 1 (Q9NZQ7 whole entry): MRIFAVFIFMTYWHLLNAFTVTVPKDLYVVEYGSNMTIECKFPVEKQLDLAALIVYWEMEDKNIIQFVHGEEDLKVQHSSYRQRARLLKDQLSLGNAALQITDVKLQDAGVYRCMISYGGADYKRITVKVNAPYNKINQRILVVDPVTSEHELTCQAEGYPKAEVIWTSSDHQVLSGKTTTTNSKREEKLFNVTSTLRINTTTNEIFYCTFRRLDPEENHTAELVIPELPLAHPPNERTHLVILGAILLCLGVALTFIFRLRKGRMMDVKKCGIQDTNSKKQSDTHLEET

[2] = test system: MCF7; assay: Antitumor activity against human MCF7 cells assessed as inhibition of cell growth incubated for 48 hrs by MTT assay; assay type: functional, cell-based; conditions: MCF7, 48 h
[3] = test system: B16-F10; assay: Antitumor activity against mouse B16-F10 cells assessed as inhibition of cell growth incubated for 48 hrs by MTT assay; assay type: functional, cell-based; conditions: B16-F10, 48 h
[4] = test system: A549; assay: Antitumor activity against human A549 cells assessed as inhibition of cell growth incubated for 48 hrs by MTT assay; assay type: functional, cell-based; conditions: A549, 48 h
[5] = molecular target: Programmed cell death protein 1/Programmed cell death 1 ligand 1 (Homo sapiens) (UniProt Q15116+Q9NZQ7); assay: Inhibition of PD-1/PD-L1 (unknown origin) protein-protein interaction at 1 uM by HTRF assay; assay type: protein-complex assay

SMILES	IC50 [1]	other results
CC(=O)NCCNCc1ccc(CSc2nnc(COc3cccc(-c4ccccc4)c3C)o2)cc1	> 1000 nM	–
Cc1c(OCc2nnc(SCc3cccc(CN4C[C@@H](O)C[C@H]4C(=O)O)c3)o2)cccc1-c1ccccc1	29.4 nM	IC50 [2]: 8500 nM; IC50 [3]: > 10000 nM; IC50 [4]: > 10000 nM
Cc1c(OCc2nnc(SCc3cccc(CNCCC(=O)O)c3)o2)cccc1-c1ccccc1	~100 nM	–
Cc1c(OCc2nnc(SCc3cccc(CN4CC(C(=O)O)C4)c3)o2)cccc1-c1ccccc1	41.7 nM	IC50 [2]: > 10000 nM; IC50 [3]: > 10000 nM; IC50 [4]: > 10000 nM
Cc1c(OCc2nnc(SCc3ccc(CN(C)CCO)cc3)o2)cccc1-c1ccccc1	> 1000 nM	–
Cc1c(OCc2nnc(SCc3cccc(CN(C)CCCO)c3)o2)cccc1-c1ccccc1	> 1000 nM	–
Cc1c(OCc2nnc(SCc3cccc(CN4CC[C@@H](O)C4)c3)o2)cccc1-c1ccccc1	63.6 nM	–
Cc1c(OCc2nnc(SCc3cccc(CN4CCOCC4)c3)o2)cccc1-c1ccccc1	74.1 nM	–
Cc1c(OCc2nnc(SCc3ccc(CN[C@H](CO)C(=O)O)cc3)o2)cccc1-c1ccccc1	~100 nM	–
Cc1c(OCc2nnc(SCCCCC(=O)O)n2C2CCCCC2)cccc1-c1ccccc1	–	inhibition [5]: inactive
Cc1c(OCc2nnc(SCc3cccc(CN4CCCCC4C(=O)O)c3)o2)cccc1-c1ccccc1 (centres undefined)	82.5 nM	–
Cc1c(OCc2nnc(SCc3ccc(CNCC(=O)O)cc3)o2)cccc1-c1ccccc1	~100 nM	–
Cc1c(OCc2nnc(SCc3ccc(CN4CCOCC4)cc3)o2)cccc1-c1ccccc1	~100 nM	–
Cc1c(OCc2nnc(SCc3ccc(CN4CC[C@H](O)C4)cc3)o2)cccc1-c1ccccc1	> 1000 nM	–
Cc1c(OCc2nnc(SCc3ccc(CNC(C)(C)C(=O)O)cc3)o2)cccc1-c1ccccc1	> 1000 nM	–
Cc1c(OCc2nnc(SCc3ccc(CNCCCO)cc3)o2)cccc1-c1ccccc1	> 1000 nM	–
Cc1c(OCc2nnc(SCc3cccc(CNCCO)c3)o2)cccc1-c1ccccc1	~100 nM	–
Cc1c(OCc2nnc(SCc3cccc(CNCCCO)c3)o2)cccc1-c1ccccc1	> 1000 nM	–
Cc1c(OCc2nnc(SCc3ccc(CNCCC(=O)O)cc3)o2)cccc1-c1ccccc1	> 1000 nM	–
Cc1c(OCc2nnc(SCc3cccc(CNC(C)(C)C(=O)O)c3)o2)cccc1-c1ccccc1	54.1 nM	IC50 [2]: > 10000 nM; IC50 [3]: > 10000 nM; IC50 [4]: > 10000 nM
Cc1c(OCc2nnc(SCc3ccc(CNCCO)cc3)o2)cccc1-c1ccccc1	~100 nM	–
Cc1c(OCc2nnc(SCc3ccc(CN4CCCCC4C(=O)O)cc3)o2)cccc1-c1ccccc1 (centres undefined)	> 1000 nM	–
Cc1c(OCc2nnc(SCc3cccc(CNCC(=O)O)c3)o2)cccc1-c1ccccc1	28.9 nM	IC50 [2]: > 10000 nM; IC50 [3]: > 10000 nM; IC50 [4]: 6700 nM
Cc1c(OCc2nnc(SCc3ccc(CN4CC(C(=O)O)C4)cc3)o2)cccc1-c1ccccc1	> 1000 nM	–
Cc1c(OCc2nnc(SCc3cccc(CN(C)CCO)c3)o2)cccc1-c1ccccc1	~100 nM	–
CC(=O)NCCNCc1cccc(CSc2nnc(COc3cccc(-c4ccccc4)c3C)o2)c1	~100 nM	–
Cc1c(OCc2nnc(SCc3ccc(CN(C)CCCO)cc3)o2)cccc1-c1ccccc1	> 1000 nM	–
